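Test compounds were applied to cells in 96-well plates for 48 hours at 5 doses. At the GI50, growth is halved. TGI: concentration producing complete growth inhibition.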
Columns and labels:
Assay in all cases: NCI tumour cell line growth inhibition, 48 h
786-0 renal = tested on: 786-0 renal
A498 renal = tested on: A498 renal
A549 NSCLC = tested on: A549 NSCLC
ACHN renal = tested on: ACHN renal
BT-549 breast = tested on: BT-549 breast
CAKI-1 renal = tested on: CAKI-1 renal
CCRF-CEM leukemia = tested on: CCRF-CEM leukemia
DU-145 prostate = tested on: DU-145 prostate
EKVX NSCLC = tested on: EKVX NSCLC
HCC-2998 colon = tested on: HCC-2998 colon
HCT-116 colon = tested on: HCT-116 colon
HCT-15 colon = tested on: HCT-15 colon
HL-60(TB) leukemia = tested on: HL-60(TB) leukemia
HOP-62 NSCLC = tested on: HOP-62 NSCLC
HOP-92 NSCLC = tested on: HOP-92 NSCLC
HS 578T breast = tested on: HS 578T breast
HT29 colon = tested on: HT29 colon
IGROV1 ovarian = tested on: IGROV1 ovarian
K-562 leukemia = tested on: K-562 leukemia
KM12 colon = tested on: KM12 colon
M14 melanoma = tested on: M14 melanoma
MALME-3M melanoma = tested on: MALME-3M melanoma
MCF7 breast = tested on: MCF7 breast
MDA-MB-231 breast = tested on: MDA-MB-231 breast
MDA-MB-435 = tested on: MDA-MB-435
NCI-H226 lung = tested on: NCI-H226 lung
NCI-H23 lung = tested on: NCI-H23 lung
NCI-H460 lung = tested on: NCI-H460 lung
NCI-H522 lung = tested on: NCI-H522 lung
NCI/ADR-RES ovarian = tested on: NCI/ADR-RES ovarian
OVCAR-3 ovarian = tested on: OVCAR-3 ovarian
OVCAR-4 ovarian = tested on: OVCAR-4 ovarian
OVCAR-5 ovarian = tested on: OVCAR-5 ovarian
OVCAR-8 ovarian = tested on: OVCAR-8 ovarian
PC-3 prostate = tested on: PC-3 prostate
RPMI-8226 leukemia = tested on: RPMI-8226 leukemia
RXF 393 renal = tested on: RXF 393 renal
SF-268 CNS = tested on: SF-268 CNS
SF-295 CNS = tested on: SF-295 CNS
SF-539 CNS = tested on: SF-539 CNS
SK-MEL-2 melanoma = tested on: SK-MEL-2 melanoma
SK-MEL-28 melanoma = tested on: SK-MEL-28 melanoma
SK-MEL-5 melanoma = tested on: SK-MEL-5 melanoma
SK-OV-3 ovarian = tested on: SK-OV-3 ovarian
SN12C renal = tested on: SN12C renal
SNB-19 CNS = tested on: SNB-19 CNS
SNB-75 CNS = tested on: SNB-75 CNS
SW-620 colon = tested on: SW-620 colon
TK-10 renal = tested on: TK-10 renal
U251 CNS = tested on: U251 CNS
UACC-257 melanoma = tested on: UACC-257 melanoma
UACC-62 melanoma = tested on: UACC-62 melanoma
UO-31 renal = tested on: UO-31 renal

`Cn1cc(-c2nn3cc(-c4cccs4)nc3s2)c2cc(F)ccc21` was tested, and the GI50 (786-0 renal) was 7.62 µM, the TGI (786-0 renal) was 52.3 µM and the GI50 (A498 renal) was 4.09 µM. For the same molecule, the TGI (A498 renal) was 50 µM, the GI50 (A549 NSCLC) was 2.85 µM and the TGI (A549 NSCLC) was 95.6 µM. It also gave a GI50 (ACHN renal) of 3.39 µM, a TGI (ACHN renal) of 86.8 µM and a GI50 (BT-549 breast) of 5.54 µM. The TGI (BT-549 breast) was 77.4 µM, the GI50 (CAKI-1 renal) was 2.42 µM and the TGI (CAKI-1 renal) was 57.4 µM. It also gave a GI50 (CCRF-CEM leukemia) of 2.54 µM, a TGI (CCRF-CEM leukemia) of over 100 µM and a GI50 (DU-145 prostate) of 3.67 µM. The TGI (DU-145 prostate) was 31.6 µM, the GI50 (EKVX NSCLC) was 2.51 µM and the TGI (EKVX NSCLC) was over 100 µM. The GI50 (HCC-2998 colon) was 5.64 µM, the TGI (HCC-2998 colon) was 33.9 µM and the GI50 (HCT-116 colon) was 2.04 µM. It also gave a TGI (HCT-116 colon) of 26.4 µM, a GI50 (HCT-15 colon) of 0.606 µM and a TGI (HCT-15 colon) of over 100 µM. The GI50 (HL-60(TB) leukemia) was 1.34 µM, the TGI (HL-60(TB) leukemia) was 15.5 µM and the GI50 (HOP-62 NSCLC) was 1.92 µM. For the same molecule, the TGI (HOP-62 NSCLC) was 23.1 µM, the GI50 (HOP-92 NSCLC) was 12.2 µM and the TGI (HOP-92 NSCLC) was 76.9 µM. The GI50 (HS 578T breast) was 2.34 µM, the TGI (HS 578T breast) was 13.4 µM and the GI50 (HT29 colon) was 0.477 µM. For the same molecule, the TGI (HT29 colon) was 14.8 µM, the GI50 (IGROV1 ovarian) was 1.93 µM and the TGI (IGROV1 ovarian) was over 100 µM. For the same molecule, the GI50 (K-562 leukemia) was 0.451 µM, the TGI (K-562 leukemia) was over 100 µM and the GI50 (KM12 colon) was 1.04 µM. It also gave a TGI (KM12 colon) of over 100 µM, a GI50 (M14 melanoma) of 1.05 µM and a TGI (M14 melanoma) of over 100 µM. The GI50 (MALME-3M melanoma) was 1.81 µM, the TGI (MALME-3M melanoma) was 31.6 µM and the GI50 (MCF7 breast) was 0.836 µM. The TGI (MCF7 breast) was 30 µM, the GI50 (MDA-MB-231 breast) was 3.23 µM and the TGI (MDA-MB-231 breast) was 30.6 µM. It also gave a GI50 (MDA-MB-435) of 0.293 µM, a TGI (MDA-MB-435) of 1.13 µM and a GI50 (NCI-H226 lung) of 4.56 µM. For the same molecule, the TGI (NCI-H226 lung) was 35.8 µM, the GI50 (NCI-H23 lung) was 3.82 µM and the TGI (NCI-H23 lung) was over 100 µM. The GI50 (NCI-H460 lung) was 1.73 µM, the TGI (NCI-H460 lung) was 17.1 µM and the GI50 (NCI-H522 lung) was 1.62 µM. It also gave a TGI (NCI-H522 lung) of 24.5 µM, a GI50 (NCI/ADR-RES ovarian) of 0.991 µM and a TGI (NCI/ADR-RES ovarian) of 19.1 µM. It also gave a GI50 (OVCAR-3 ovarian) of 2.06 µM, a TGI (OVCAR-3 ovarian) of 9.67 µM and a GI50 (OVCAR-4 ovarian) of 5.77 µM. For the same molecule, the TGI (OVCAR-4 ovarian) was over 100 µM, the GI50 (OVCAR-5 ovarian) was 8.24 µM and the TGI (OVCAR-5 ovarian) was 84.4 µM. The GI50 (OVCAR-8 ovarian) was 4.53 µM, the TGI (OVCAR-8 ovarian) was over 100 µM and the GI50 (PC-3 prostate) was 3.19 µM. For the same molecule, the TGI (PC-3 prostate) was over 100 µM, the GI50 (RPMI-8226 leukemia) was 3.01 µM and the TGI (RPMI-8226 leukemia) was 26.5 µM. For the same molecule, the GI50 (RXF 393 renal) was 1.59 µM, the TGI (RXF 393 renal) was 5.73 µM and the GI50 (SF-268 CNS) was 6.58 µM. It also gave a TGI (SF-268 CNS) of over 100 µM, a GI50 (SF-295 CNS) of 2.24 µM and a TGI (SF-295 CNS) of 9.39 µM. For the same molecule, the GI50 (SF-539 CNS) was 2.18 µM, the TGI (SF-539 CNS) was 7.54 µM and the GI50 (SK-MEL-2 melanoma) was 1.59 µM. For the same molecule, the TGI (SK-MEL-2 melanoma) was 7.29 µM, the GI50 (SK-MEL-28 melanoma) was 7.23 µM and the TGI (SK-MEL-28 melanoma) was over 100 µM. The GI50 (SK-MEL-5 melanoma) was 1.8 µM, the TGI (SK-MEL-5 melanoma) was 12.9 µM and the GI50 (SK-OV-3 ovarian) was 3.47 µM. It also gave a TGI (SK-OV-3 ovarian) of 70.9 µM, a GI50 (SN12C renal) of 4.71 µM and a TGI (SN12C renal) of over 100 µM. It also gave a GI50 (SNB-19 CNS) of 3.44 µM, a TGI (SNB-19 CNS) of over 100 µM and a GI50 (SNB-75 CNS) of 1.29 µM. The TGI (SNB-75 CNS) was 6.45 µM, the GI50 (SW-620 colon) was 0.478 µM and the TGI (SW-620 colon) was over 100 µM. It also gave a GI50 (TK-10 renal) of 4.92 µM, a TGI (TK-10 renal) of 19.4 µM and a GI50 (U251 CNS) of 2.76 µM. It also gave a TGI (U251 CNS) of 17.9 µM, a GI50 (UACC-257 melanoma) of 7.9 µM and a TGI (UACC-257 melanoma) of over 100 µM. For the same molecule, the GI50 (UACC-62 melanoma) was 1.93 µM, the TGI (UACC-62 melanoma) was over 100 µM and the GI50 (UO-31 renal) was 1.72 µM. For the same molecule, the TGI (UO-31 renal) was over 100 µM.

— PubChem BioAssay (NCI)
